Assay results: patent US20120190669A1, “OXINDOLE COMPOUNDS” (CYLENE PHARMACEUTICALS, INC., priority 2008, published 2012)

Target: recombinant PIM-1 (Homo sapiens, UniProt P11309)
Assay: PIM-1 kinase assay (radiometric, 15 uM ATP, DMSO 4%)
Type: biochemical
Settings: Table 1; % inhibition at the high dose (2 micromolar) in a single screening assay; 15 μM ATP
Description: The following procedure was used to assay the PIM-1 kinase activity of compounds of the invention. Other methods for assaying PIM-1 and other PIM kinases, as well as methods to assay for activity against the various kinases in FIG. 1, are known in the art.
(specific activity approx. 500 cpm/pmol), DMSO 4% and test inhibitor compound at the required concentration. The reaction was initiated by the addition of the Magnesium ATP mixture. After 40 min incubation at 23° C., the reactions were quenched by the addition of 100 ul 0.75% Phosphoric acid, and the labeled peptide collected by filtration through a phosphocellulose filter plate. The plate was washed 4 times with 0.075% phosphoric acid (100 ul per well) and then, after the addition of scintillation fluid (20 ul per well), the counts were measured by a scintillation counter.

Sequence of recombinant PIM-1 (P11309 whole entry): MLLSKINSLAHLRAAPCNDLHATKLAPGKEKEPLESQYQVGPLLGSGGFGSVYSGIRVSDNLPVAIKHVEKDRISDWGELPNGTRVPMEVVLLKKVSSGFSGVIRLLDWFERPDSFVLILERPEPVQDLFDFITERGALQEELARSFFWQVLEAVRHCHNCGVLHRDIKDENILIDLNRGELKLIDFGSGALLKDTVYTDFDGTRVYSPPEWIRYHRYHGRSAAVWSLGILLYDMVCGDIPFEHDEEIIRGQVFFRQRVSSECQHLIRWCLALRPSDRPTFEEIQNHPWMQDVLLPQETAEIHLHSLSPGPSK

Compared with `CN1CCC(NC(=O)c2cc(-c3ccc(/C=C4/C(=O)Nc5ccccc54)o3)ccc2Cl)CC1` [Compound 27], `CN1CC(NC(=O)c2cc(-c3ccc(/C=C4/C(=O)Nc5ccccc54)o3)ccc2Cl)C1` [Compound 25] is higher in inhibition at 2 µM: -16.9% for the first, -15.8% for the second.

Compared with `CN(CCN1CCCC1)C(=O)c1ccccc1-c1ccc(/C=C2/C(=O)Nc3ccccc32)o1` [Compound 55], `CN1CCCCC1CNC(=O)c1ccccc1-c1ccc(/C=C2/C(=O)Nc3ccccc32)o1` (stereo not shown) [Compound 60] is lower in inhibition at 2 µM: 2.91% for the first, 0.33% for the second.

First: O=C1Nc2ccc(Cl)cc2/C1=C\c1ccc(-c2cccc(C(=O)NCCc3ccccn3)c2)o1 [Compound 172]
Second: CON(C)C(=O)c1cccc(-c2ccc(/C=C3/C(=O)Nc4ccc(Cl)cc43)o2)c1 [Compound 176]
The inhibition at 2 µM of the first is higher: 29.3% for the first, -59.6% for the second.

Compared with `CCN1CCCC1CNC(=O)c1ccc(-c2ccc(/C=C3/C(=O)Nc4ccc(F)cc43)o2)cc1` (stereo not shown) [Compound 84], `CCN1CCCC1CNC(=O)c1cc(-c2ccc(/C=C3/C(=O)Nc4ccc(F)cc43)o2)ccc1Cl` (stereo not shown) [Compound 71] is lower in inhibition at 2 µM: 91.3% for the first, 5.32% for the second.

Going from `CN1CCC(N(C)C(=O)c2cc(-c3ccc(/C=C4/C(=O)Nc5ccc(F)cc54)o3)ccc2Cl)C1` (stereo not shown) [Compound 72] to `CN1CCC(N(C)C(=O)c2ccc(-c3ccc(/C=C4/C(=O)Nc5ccc(F)cc54)o3)cc2)C1` (stereo not shown) [Compound 83], the inhibition at 2 µM rises from 37.1% to 54.8%.

First: O=C1Nc2c(Cl)cccc2/C1=C\c1ccc(-c2ccc(Cl)c(C(=O)NCCN3CCCC3)c2)o1 [Compound 105]
Second: O=C1Nc2c(Cl)cccc2/C1=C\c1ccc(-c2cccc(C(=O)NCCN3CCCC3)c2)o1 [Compound 41]
The inhibition at 2 µM of the first is lower: -16.7% for the first, 19% for the second.

Compared with `CN1CCCCC1CNC(=O)c1cccc(-c2ccc(/C=C3/C(=O)Nc4c3cccc4C(F)(F)F)o2)c1` (stereo not shown) [Compound 51], `CN1CCCCC1CNC(=O)c1cccc(-c2ccc(/C=C3/C(=O)Nc4ccc(C(F)(F)F)cc43)o2)c1` (stereo not shown) [Compound 48] is lower in inhibition at 2 µM: 2.32% for the first, -4.56% for the second.

First: O=C1Nc2ccc(C(=O)O)cc2/C1=C\c1ccc(-c2cccc(C(=O)NCCN3CCCC3)c2)o1 [Compound 6]
Second: O=C1Nc2ccc(C(=O)NC3CC3)cc2/C1=C\c1ccc(-c2cccc(C(=O)NCCN3CCCC3)c2)o1 [Compound 9]
The inhibition at 2 µM of the first is lower: 32.3% for the first, 37.2% for the second.

Compared with `COC(=O)c1ccccc1-c1ccc(/C=C2/C(=O)Nc3ccc(F)cc32)o1` [Compound 30], `Cn1cncc1CNC(=O)c1ccccc1-c1ccc(/C=C2/C(=O)Nc3ccc(F)cc32)o1` [Compound 65] is higher in inhibition at 2 µM: -6.8% for the first, -2.39% for the second.

Going from `CCN(CC)CCNC(=O)c1cc(-c2ccc(/C=C3/C(=O)Nc4ccc(F)cc43)o2)ccc1Cl` [Compound 74] to `O=C1Nc2ccc(F)cc2/C1=C\c1ccc(-c2ccc(Cl)c(C(=O)NCCN3CCCC3)c2)o1` [Compound 73], the inhibition at 2 µM rises from 15.6% to 20.9%.

First: CC(C)(C)OC(=O)Nc1cccc(-c2ccc(/C=C3/C(=O)Nc4ccccc43)o2)c1 [Compound 181]
Second: O=C1Nc2ccccc2/C1=C\c1ccc(-c2cccc(C(=O)Nc3nccs3)c2)o1 [Compound 167]
The inhibition at 2 µM of the first is higher: 14.5% for the first, -3.02% for the second.

Compared with `O=C1Nc2ccc(F)cc2/C1=C\c1ccc(-c2cccc(C(=O)NC3CC3)c2)o1` [Compound 20], `O=C1Nc2ccc(F)cc2/C1=C\c1ccc(-c2cccc(C(=O)N3CCOCC3)c2)o1` [Compound 19] is lower in inhibition at 2 µM: 46% for the first, 42.2% for the second.

Compared with `O=C1Nc2ccccc2/C1=C\c1ccc(-c2ccc(Cl)c(C(=O)NCCN3CCCC3)c2)o1` [Compound 11], `O=C1Nc2ccccc2/C1=C\c1ccc(-c2ccc(Cl)c(C(=O)NCCC3CCCN3)c2)o1` (stereo not shown) [Compound 28] is lower in inhibition at 2 µM: 5.6% for the first, -37.6% for the second.

Going from `CCN(CC)CCNC(=O)c1ccc(-c2ccc(/C=C3/C(=O)Nc4ccccc43)o2)cn1` [Compound 134] to `CN1CCCC(NC(=O)c2ccc(-c3ccc(/C=C4/C(=O)Nc5ccccc54)o3)cn2)C1` (stereo not shown) [Compound 129], the inhibition at 2 µM falls from 32.4% to 1.44%.

Going from `CCN1CCCC1CNC(=O)c1cccc(-c2ccc(/C=C3/C(=O)Nc4ccccc43)o2)c1` (stereo not shown) [Compound 57] to `O=C1Nc2ccc([N+](=O)[O-])cc2/C1=C\c1ccc(-c2cccc(C(=O)NCCN3CCCC3)c2)o1` [Compound 52], the inhibition at 2 µM rises from 10.6% to 20.4%.

Going from `O=C1Nc2ccc(F)cc2/C1=C\c1cc(-c2cccc(C(=O)NCCN3CCCC3)c2)co1` [Compound 88] to `CN1CCCC(NC(=O)c2cccc(-c3coc(/C=C4/C(=O)Nc5ccc(F)cc54)c3)c2)C1` (stereo not shown) [Compound 89], the inhibition at 2 µM falls from 9% to 6.1%.

First: CN1CCC(N(C)C(=O)c2ccc(-c3ccc(/C=C4/C(=O)Nc5ccccc54)o3)cn2)C1 (stereo not shown) [Compound 131]
Second: CN1CCN(C(=O)c2cc(-c3ccc(/C=C4/C(=O)Nc5ccccc54)o3)ccc2Cl)CC1 [Compound 26]
The inhibition at 2 µM of the first is higher: 5.08% for the first, -18.8% for the second.

Going from `CCCC(=O)Nc1cc(C(=O)NCCN2CCCC2)ccc1-c1ccc(/C=C2/C(=O)Nc3ccccc32)o1` [Compound 169] to `CN(C)C1CCN(C(=O)c2cccc(-c3ccc(/C=C4/C(=O)Nc5ccc(Cl)cc54)o3)c2)CC1` [Compound 113], the inhibition at 2 µM rises from -29.9% to 38.1%.

Same assay, conditions: Table 1; given for compounds with IC50 at or below 2 micromolar; 15 uM ATP; read-out: PIM-1 IC50

`CCN1CCCC1CNC(=O)c1ccc(-c2ccc(/C=C3/C(=O)Nc4ccc(F)cc43)o2)cc1` (stereo not shown) [Compound 84] and `CCN1CCCC1CNC(=O)c1ccc(Cl)c(-c2ccc(/C=C3/C(=O)Nc4ccc(F)cc43)o2)c1` (stereo not shown) [Compound 100] cannot be ordered by IC50: under 1000 nM for the first, under 1000 nM for the second.

`O=C1Nc2ccc(Cl)cc2/C1=C\c1ccc(-c2cccc(C(=O)NCC(O)c3ccncc3)c2)o1` (stereo not shown) [Compound 190] and `O=C1Nc2ccc(Cl)cc2/C1=C\c1ccc(-c2cccc(C(=O)NCC(O)c3cccnc3)c2)o1` (stereo not shown) [Compound 189] cannot be ordered by IC50: under 1000 nM for the first, under 1000 nM for the second.

`O=C1Nc2ccccc2/C1=C\c1ccc(-c2ccc(C(=O)NCCN3CCCC3)c(O)c2)o1` [Compound 182] and `Cc1cc(-c2cccc(C(=O)NCCN3CCCC3)c2)oc1/C=C1/C(=O)Nc2ccccc21` [Compound 157] cannot be ordered by IC50: under 2000 nM for the first, under 2000 nM for the second.

`CCN1CCCC1CNC(=O)c1cncc(-c2ccc(/C=C3/C(=O)Nc4ccc(Cl)cc43)o2)c1` (stereo not shown) [Compound 150] and `CCN1CCCC1CNC(=O)c1cccc(-c2ccc(/C=C3/C(=O)Nc4ccc(Cl)cc43)o2)c1` (stereo not shown) [Compound 112] cannot be ordered by IC50: under 1000 nM for the first, under 1000 nM for the second.

`O=C1Nc2ccccc2/C1=C\c1ccc(-c2ccc(C(=O)O)nc2)o1` [Compound 127] and `NC(=O)c1cccc(-c2ccc(/C=C3/C(=O)Nc4ccccc43)o2)c1` [Compound 166] cannot be ordered by IC50: under 1000 nM for the first, under 1000 nM for the second.

`CN1CCC(N(C)C(=O)c2ccc(-c3ccc(/C=C4/C(=O)Nc5ccc(F)cc54)o3)cc2)C1` (stereo not shown) [Compound 83] and `CN1CCCC1N(C)C(=O)c1ccc(-c2ccc(/C=C3/C(=O)Nc4ccccc43)o2)cc1` (stereo not shown) [Compound 33] cannot be ordered by IC50: under 1000 nM for the first, under 1000 nM for the second.

`CN(C)C1CCN(C(=O)c2ccc(Cl)c(-c3ccc(/C=C4/C(=O)Nc5ccc(F)cc54)o3)c2)CC1` [Compound 103] and `O=C1Nc2ccc(F)cc2/C1=C\c1ccc(-c2cccc(C(=O)O)c2)o1` [Compound 10] cannot be ordered by IC50: under 2000 nM for the first, under 2000 nM for the second.

`CCN1CCCC1CNC(=O)c1cncc(-c2ccc(/C=C3/C(=O)Nc4ccc(Cl)cc43)o2)c1` (stereo not shown) [Compound 151] and `Nc1cccc(-c2ccc(/C=C3/C(=O)Nc4ccccc43)o2)c1` [Compound 183] cannot be ordered by IC50: under 1000 nM for the first, under 2000 nM for the second.

For `O=C1Nc2ccccc2/C1=C\c1ccc(-c2ccccc2O)o1` [Compound 162], the IC50 was under 2000 nM.

Same assay, conditions: Table 3; DMSO 4%; read-out: PIM1: IC50 (DMSO 4%)

Going from `CN1CCCN(C(=O)c2ccc(Cl)c(-c3ccc(/C=C4/C(=O)Nc5ccc(F)cc54)o3)c2)CC1` to `CN1CCCN(C(=O)c2cccc(-c3ccc(/C(=C4/C(=O)Nc5ccc(Cl)cc54)C4CC4)o3)c2)CC1`, the IC50 rises from under 1000 nM to over 1100 nM.
